Laboratory results taken from patent publication US8999937B2, “Glucocorticoid induced leucine zipper mimetics as therapeutic agents in multiple sclerosis” (Indiana University Research and Technology Corporation, priority 2011, dated 2015).
Entries after “also recorded” stand apart in the source; their conditions may differ.

What was measured:
R-EAE in SJL/J mice = assay: Relapsing remitting EAE (R-EAE) in SJL/J mice, clinical score; type: in vivo, mouse
Protocol: Relapsing remitting EAE is induced in 8-10-week old female SJL/J mice. The mice were immunized with 100 μg of PLP139-151 in PBS emulsified 1:1 in complete Freund's adjuvant supplemented with 200 μg of Mycobacterium tuberculosis H37RA (Difco Laboratories, Detroit, Mich.) distributed over four sites on the lateral hind flanks subcutaneously. Mice were injected with 100 ng of pertussis toxin (List Biological Laboratories, Campbell, Calif.) intraperitonealy on the day of immunization and 2 days later (Srinivasan et al., (2002) J Immunol, 169(4):2180-8).
As opposed to the B10.PL mice which often develop monophasic EAE, PLP139-151 immunized SJL/J mice develop relapsing remitting form of EAE (R-EAE) (Dudhgaonkar et al. (2009) J Immunol, 183(11):7505-13). Groups of SJL/J mice were induced EAE as described above. Animals were observed daily for clinical signs and scored as follows: 0, no clinical signs; 1, limp tail or waddling gait with tail tonicity; 2, waddling gait with limp tail (ataxia); 2.5, ataxia with partial paralysis of one limb; 3, partial hind-limb paralysis; 3.5, full paralysis of one limb with partial paralysis of the second limb; 4, full paralysis of two limbs; 4.5 moribund; and 5, death (1, 8). […] A group of mice received the GILZ peptide:Pep-1 complex on day 12 post-immunization. Groups of mice treated with PBS (vehicle) or Pep-1 alone were included as control.
A group of mice received the GILZ-P•Pep-1 complex 12 days post-immunization. rh-GILZ was used to evaluate the effect in R-EAE.

[1] = system: CD4+ LNC from PLP primed SJL/J mice; assay: In vitro proliferation ([3H]-thymidine) of PLP139-151 restimulated CD4+ LNC from primed SJL/J mice; type: cell-based, mouse; conditions: for proliferative response, in words: vs PLP139-151 alone or vs r-GILZ
Protocol: CD4+ lymph node cells (LNC) isolated from the draining lymph nodes harvested from SJL/J mice 10 days after immunization with PLP139-151 were cultured in 96-well plates at […] in complete RPMI and restimulated with the PLP peptide (40 μg/ml) for 72 h, including a final 16-h pulse with [^3H]-thymidine. […] Separate cultures stimulated with ova (40 μg/ml) served as control for antigen specificity. Irradiated splenocytes from syngenic mice were used as antigen presenting cells (APC). Cultures were harvested onto glass fiber mats using a Skatron harvester (Skatron, Sterling, Va.), and the levels of [^3H]-thymidine incorporation were determined by liquid scintillation counting (Microbeta; Wallac, Turku, Finland). Results were confirmed by replicate experiments. Data are expressed as Δcpm (counts/min incorporated in antigen-stimulated culture-counts/min incorporated by control unstimulated culture).
Supernatants collected at 24 and 48 h were assessed for specific cytokines using the OptEIA kits (BD Biosciences). Proliferation assays included parallel cultures for 72 h with a final 18-h pulse with [^3H]thymidine measured by liquid scintillation counting (Microbeta, Turku, Finland).

[2] = system: activated p65 NF-κB subunit; assay: NF-κB assay (TransAM): p65 DNA binding in nuclear extracts; type: cell-based, mouse; conditions: CD4+ LNC restimulated with PLP139-151, 24 h
Protocol: Nuclear and cytoplasmic protein fractions of CD4+ T cells obtained using a nuclear extraction kit are assessed for NF-κB activation and p65 nuclear translocation using Trans^AM NF-κB kits (Active Motif, Carlsbad, Calif.). The effect of exogenous GILZ and GILZ mimetics on phosphorylation and proteolytic degradation of IκB proteins is determined by Western blot analysis of nuclear and cytoplasmic protein fractions from CD4+ T cells pretreated with GILZ/chariot peptide complex prior to stimulation.
5 μg of nuclear extracts isolated from PLP139-151 restimulated CD4+ cells from R-EAE mice were incubated in a 96-well plate coated with oligonucleotides containing the NF-κB consensus binding site. The activated NF-κB bound to DNA was detected by anti-p65 antibody followed by a peroxidase-coupled secondary antibody and substrate using the TransAM kit protocol (Active Motif).

[3] = system: T-bet, GATA-3, IL-10 and FoxP3 mRNA; assay: Quantitative RT-PCR in CD4+ LNC from treated R-EAE mice; type: in vivo, mouse; conditions: for GATA-3 mRNA / T-bet mRNA: mice treated on day 0, re-stimulation with PLP139-151; for FoxP3 mRNA / IL-10 mRNA: mice treated on day 0, vs vehicle/control-P
Protocol: 50 ng of cDNA from CD4+LNC were used for quantitative measurement of message for (A) T-bet, (B) GATA-3, (C) IL-10, and (D) FoxP3 by quantitative RT-PCR. (E), gel electrophoresis of representative products. * and # represent p<0.05 by analysis of variance as compared with vehicle or control peptide-treated group, respectively.

T-bet and GATA-3 mRNA = assay: Real time PCR for T-bet and GATA-3 in CD4+ LNC restimulated in vitro; type: cell-based, mouse; conditions: CD4+ LNC restimulated in vitro with PLP139-151
Protocol: Intracellular delivery of r-GILZ was detected using […]-labeled anti-DDK mAb in permeabilized cells and measured by FACS Calibur. […] The delivery efficiency was assessed by mean fluorescence intensity (D). […] (F)-(I) show supernatants collected at 48 h were assessed for IFN-γ (F), IL-12 (G), IL-17 (H), and IL-10 (I) by ELISA. […] Five micrograms of nuclear extracts were tested for binding of the activated p65 NF-κB subunit to an NF-κB consensus sequence using the TransAM NF-κB ELISA kit. The p65 DNA binding activity was calculated as the ratio of absorbance from PLP139-151-stimulated cells to that of unstimulated cells. Values are the average±S.D. performed 3 times in duplicate. (K)-(L) show real time PCR for T-bet (K) and GATA-3 (L) was performed using 50 ng of cDNA isolated from CD4+LNC of R-EAE mice re-stimulated in vitro with PLP139-151 under the indicated conditions.
Proliferative responses of CD4+ lymph node cells and splenocytes harvested 10 days post-induction upon re-stimulation in vitro with PLP^139-151 in the presence or absence of chariot peptide complexed with purified GILZ protein and/or GILZ mimetics at varying concentrations is determined as described. IL-2, TNF-α, IFN-γ, IL12-p40, IL-17, IL-4, IL-5, IL-10 and TGF-β) of the cells following similar in vitro restimulation is determined by ELISA. Measurement of relative quantities of Th1 and Th2 specific transcription factors is determined by real time PCR using ABI primers.

[4] = Example 1, entire period of observation
[5] = Example 1, i.p. on day 0 with Pep-1, peptides 500 μg, r-GILZ 2 ng, n=4/group
[6] = Example 2, single i.p. dose on day 0 with Pep-1, peptides 500 μg, r-GILZ 2 ng, n=9/group

Substance	clinical relapse after initial remission (R-EAE in SJL/J mice; [4])	mean clinical score (severity of clinical disease) (R-EAE in SJL/J mice; [5])	clinical relapse after initial remission (R-EAE in SJL/J mice; Example 2)	mean total clinical score (R-EAE in SJL/J mice; [6])	average clinical score per day, in words (R-EAE in SJL/J mice; Example 2, vs control groups)	proliferative response, in words [1]	p65-specific DNA binding activity in nuclear extracts [2]	GATA-3 mRNA [3]	T-bet mRNA [3]	FoxP3 mRNA [3]	IL-10 mRNA [3]	GATA-3 mRNA (T-bet and GATA-3 mRNA)	T-bet mRNA (T-bet and GATA-3 mRNA)	further results
Ac-CLSPEEPAPESPQVPEAPGGSAV-NH2 [GILZ-P]	exhibited no relapse	0.56+/−0.21	exhibited minimal relapse	2.25±0.72	significantly lower	significantly decreased proliferative response	significantly decreased	elevated	significantly lower	significantly higher	significantly higher	elevated	significantly decreased	mean clinical score (severity of clinical disease) (R-EAE in SJL/J mice; Example 1, GILZ peptide 500 μg i.p. on day 12 post-induction): 1.78+/−1.01; average clinical score per day, in words (R-EAE in SJL/J mice; Example 1, day 0/day 12 treatment vs control groups, listed as GILZ peptide): significantly reduced scores; average clinical score per day, in words (R-EAE in SJL/J mice; Example 1, day 0/day 12 treatment vs control groups, listed as GILZ-peptide): significantly lower; mean total clinical score (R-EAE in SJL/J mice; Example 2, Pep-1•GILZ-P single dose on day 12): 15.75±4.85; proliferative response (mean Δcpm), maximum inhibition ([1]; 250 μM GILZ-P with Pep-1): 1404±106 cpm; proliferative response (Δcpm) ([1]; GILZ peptide in the absence of Pep-1): 6663±173 cpm; proliferative response (Δcpm) ([1]; GILZ peptide in the absence of Pep-1, listed as GILZ peptide): 6663+/−173 cpm; proliferative response (Δcpm) ([1]; peptide 500 μM in complex with Pep-1, PLP 40 μg/ml, 72 h): 1702+/−217 cpm; proliferative response, in words ([1]; listed as GILZ peptide): greater inhibition than those treated with r-GILZ at all concentrations; GATA-3 mRNA (T-bet and GATA-3 mRNA; listed as GILZ-peptide): up-regulated; T-bet mRNA (T-bet and GATA-3 mRNA; listed as GILZ-peptide): down-regulated
r-GILZ: recombinant glucocorticoid induced leucine zipper protein (Abnova; OriGene with C-terminal DDK)	exhibited no relapse	0.17+/−0.14	exhibited minimal relapse	7.13±2.8	significantly lower	significantly decreased proliferative response	significantly decreased	elevated	significantly lower	significantly higher	significantly higher	up-regulated; also recorded: elevated	down-regulated; also recorded: significantly decreased	average clinical score per day, in words (R-EAE in SJL/J mice; Example 1, day 0/day 12 treatment vs control groups): significantly reduced scores; also recorded: significantly lower; proliferative response (Δcpm) ([1]; r-GILZ 200 ng with Pep-1, PLP 40 μg/ml, 72 h): 4658+/−266 cpm
